# Data taken from patent US12472282B2, “Bioengineered wharton's jelly derived extracellular matrix” (University of Rochester, priority 2018, dated 2025).
# System: primary acute myeloid leukemia (AML) cells
# Experiment: Response to chemotherapy following treatment with doxorubicin, DWJM culture vs suspension culture
# Type: cell-based, human
# Description: AML patient samples collected by leukapheresis were cultured in DWJM disks for one week. Non-adherent cells were first aspirated and adherent cells were separately isolated and assessed for viability, apoptosis, and colony forming unit (CFU). RNA sequencing was performed at the end of culture. Response to chemotherapy following treatment with doxorubicin was also assessed. For all studies, DWJM-adherent and non-adherent cells were compared to suspension culture controls. Metabolic pathway analyses were conducted using enzyme-linked immunosorbent assay (ELISA). One-tailed t-test was used for comparison between the groups
smiles,measurement,setting,value
COc1cccc2c1C(=O)c1c(O)c3c(c(O)c1C2=O)C[C@@](O)(C(=O)CO)C[C@@H]3O[C@H]1C[C@H](N)[C@H](O)[C@H](C)O1 [doxorubicin],CFU activity after doxorubicin,"co-culture with DWJM, P=0.047","3.3 /300,000 cells"
same,CFU activity after doxorubicin,suspension culture cells,"0.3 /300,000 cells"
